# Experimental data from article PMC3694096, “Development of Novel In Vivo Chemical Probes to Address CNS Protein Kinase Involvement in Synaptic Dysfunction” (PLoS ONE, 2013).
# How the values were obtained:
# [1] = molecular target: T1, ErbB4 (Homo sapiens, UniProt Q15303); assay: Kinome profiler screen; type: biochemical; conditions: at 20,000 nM inhibitor; kinase activity remaining
# T1 construct: purchased Millipore KinaseProfiler
# [2] = molecular target: T2, FGFR2(N549H) (Homo sapiens, UniProt P21802, N549H); assay: Kinome profiler screen; type: biochemical; conditions: at 20,000 nM inhibitor; kinase activity remaining
# T2 construct: purchased Millipore KinaseProfiler
# [3] = molecular target: T3, Met(D1246N) (Homo sapiens, UniProt P08581, D1228N); assay: Kinome profiler screen; type: biochemical; conditions: at 20,000 nM inhibitor; kinase activity remaining
# T3 construct: purchased Millipore KinaseProfiler
# [4] = molecular target: T4, PAR-1Bα (Homo sapiens, UniProt Q7KZI7); assay: Kinome profiler screen; type: biochemical; conditions: at 20,000 nM inhibitor; kinase activity remaining
# T4 construct: purchased Millipore KinaseProfiler
# [5] = molecular target: T5, Tie2 (Homo sapiens, UniProt Q02763); assay: Kinome profiler screen; type: biochemical; conditions: at 20,000 nM inhibitor; kinase activity remaining
# T5 construct: purchased Millipore KinaseProfiler
# [6] = molecular target: T6, TSSK2 (Homo sapiens, UniProt Q96PF2); assay: Kinome profiler screen; type: biochemical; conditions: at 20,000 nM inhibitor; kinase activity remaining
# T6 construct: purchased Millipore KinaseProfiler
# [7] = molecular target: T7, mTOR (Homo sapiens, UniProt P42345); assay: Kinome profiler screen; type: biochemical; conditions: at 20,000 nM inhibitor; kinase activity remaining
# T7 construct: purchased Millipore KinaseProfiler
# [8] = molecular target: T8, AMPKα1 (Homo sapiens, UniProt Q13131); assay: Kinome profiler screen; type: biochemical; conditions: at 20,000 nM inhibitor; kinase activity remaining
# T8 construct: purchased Millipore KinaseProfiler
# [9] = molecular target: T9, Lck activated (Homo sapiens, UniProt P06239); assay: Kinome profiler screen; type: biochemical; conditions: at 20,000 nM inhibitor; kinase activity remaining
# T9 construct: purchased Millipore KinaseProfiler
# [10] = molecular target: T10, CDK3/cyclinE (Homo sapiens, UniProt Q00526); assay: Kinome profiler screen; type: biochemical; conditions: at 20,000 nM inhibitor; kinase activity remaining
# T10 construct: purchased Millipore KinaseProfiler
# [11] = molecular target: T11, GCK (Homo sapiens, UniProt Q12851); assay: Kinome profiler screen; type: biochemical; conditions: at 20,000 nM inhibitor; kinase activity remaining
# T11 construct: purchased Millipore KinaseProfiler
# [12] = molecular target: T12, MKK4(m) (Mus musculus, UniProt P47809); assay: Kinome profiler screen; type: biochemical; conditions: at 20,000 nM inhibitor; kinase activity remaining
# T12 construct: purchased Millipore KinaseProfiler
# [13] = molecular target: T13, BRK (Homo sapiens, UniProt Q13882); assay: Kinome profiler screen; type: biochemical; conditions: at 20,000 nM inhibitor; kinase activity remaining
# T13 construct: purchased Millipore KinaseProfiler
# [14] = molecular target: T14, GRK5 (Homo sapiens, UniProt P34947); assay: Kinome profiler screen; type: biochemical; conditions: at 20,000 nM inhibitor; kinase activity remaining; read-out: % Activity
# T14 construct: purchased Millipore KinaseProfiler
# [15] = molecular target: T15, PIP5K1α (Homo sapiens, UniProt Q99755); assay: Kinome profiler screen; type: biochemical; conditions: at 20,000 nM inhibitor; kinase activity remaining
# T15 construct: purchased Millipore KinaseProfiler
# [16] = molecular target: T16, PKBβ (Homo sapiens, UniProt P31751); assay: Kinome profiler screen; type: biochemical; conditions: at 20,000 nM inhibitor; kinase activity remaining
# T16 construct: purchased Millipore KinaseProfiler
# [17] = molecular target: T17, Rsk1 (Homo sapiens, UniProt Q15418); assay: Kinome profiler screen; type: biochemical; conditions: at 20,000 nM inhibitor; kinase activity remaining
# T17 construct: purchased Millipore KinaseProfiler
# [18] = molecular target: T18, Rsk3 (Homo sapiens, UniProt Q15349); assay: Kinome profiler screen; type: biochemical; conditions: at 20,000 nM inhibitor; kinase activity remaining
# T18 construct: purchased Millipore KinaseProfiler
# [19] = molecular target: T19, PI3 Kinase (p110δ/p85α)(m) (Mus musculus, UniProt O35904); assay: Kinome profiler screen; type: biochemical; conditions: at 20,000 nM inhibitor; kinase activity remaining
# T19 construct: purchased Millipore KinaseProfiler
# [20] = molecular target: T20, PDGFRα(V561D) (Homo sapiens, UniProt P16234, V561D); assay: Kinome profiler screen; type: biochemical; conditions: at 20,000 nM inhibitor; kinase activity remaining; read-out: % Activity
# T20 construct: purchased Millipore KinaseProfiler
# [21] = molecular target: T21, HIPK2 (Homo sapiens, UniProt Q9H2X6); assay: Kinome profiler screen; type: biochemical; conditions: at 20,000 nM inhibitor; kinase activity remaining
# T21 construct: purchased Millipore KinaseProfiler
# [22] = molecular target: T22, Met(D1246H) (Homo sapiens, UniProt P08581, D1228H); assay: Kinome profiler screen; type: biochemical; conditions: at 20,000 nM inhibitor; kinase activity remaining
# T22 construct: purchased Millipore KinaseProfiler
# [23] = molecular target: T23, EphA5 (Homo sapiens, UniProt P54756); assay: Kinome profiler screen; type: biochemical; conditions: at 20,000 nM inhibitor; kinase activity remaining
# T23 construct: purchased Millipore KinaseProfiler
# [24] = molecular target: T24, DCAMKL2 (Homo sapiens, UniProt Q8N568); assay: Kinome profiler screen; type: biochemical; conditions: at 20,000 nM inhibitor; kinase activity remaining
# T24 construct: purchased Millipore KinaseProfiler
# [25] = molecular target: T25, EphA7 (Homo sapiens, UniProt Q15375); assay: Kinome profiler screen; type: biochemical; conditions: at 20,000 nM inhibitor; kinase activity remaining
# T25 construct: purchased Millipore
# [26] = molecular target: T26, PKCβII (Homo sapiens, UniProt P05771); assay: Kinome profiler screen; type: biochemical; conditions: at 20,000 nM inhibitor; kinase activity remaining
# T26 construct: purchased Millipore KinaseProfiler
# [27] = molecular target: T27, PKCγ (Homo sapiens, UniProt P05129); assay: Kinome profiler screen; type: biochemical; conditions: at 20,000 nM inhibitor; kinase activity remaining
# T27 construct: purchased Millipore KinaseProfiler
# [28] = molecular target: T28, Ret(V804M) (Homo sapiens, UniProt P07949, V804M); assay: Kinome profiler screen; type: biochemical; conditions: at 20,000 nM inhibitor; kinase activity remaining
# T28 construct: purchased Millipore KinaseProfiler
# [29] = molecular target: T29, ZAP-70 (Homo sapiens, UniProt P43403); assay: Kinome profiler screen; type: biochemical; conditions: at 20,000 nM inhibitor; kinase activity remaining
# T29 construct: purchased Millipore KinaseProfiler
# [30] = molecular target: T30, PhKγ2 (Homo sapiens, UniProt P15735); assay: Kinome profiler screen; type: biochemical; conditions: at 20,000 nM inhibitor; kinase activity remaining
# T30 construct: purchased Millipore KinaseProfiler
# [31] = molecular target: T31, IKKβ (Homo sapiens, UniProt O14920); assay: Kinome profiler screen; type: biochemical; conditions: at 20,000 nM inhibitor; kinase activity remaining
# T31 construct: purchased Millipore KinaseProfiler
# [32] = molecular target: T32, Abl(Y253F) (Homo sapiens, UniProt P00519, Y253F); assay: Kinome profiler screen; type: biochemical; conditions: at 20,000 nM inhibitor; kinase activity remaining
# T32 construct: purchased Millipore KinaseProfiler
# [33] = molecular target: T33, PIP5K1γ (Homo sapiens, UniProt O60331); assay: Kinome profiler screen; type: biochemical; conditions: at 20,000 nM inhibitor; kinase activity remaining
# T33 construct: purchased Millipore KinaseProfiler
# [34] = molecular target: T34, BrSK2 (Homo sapiens, UniProt Q8IWQ3); assay: Kinome profiler screen; type: biochemical; conditions: at 20,000 nM inhibitor; kinase activity remaining
# T34 construct: purchased Millipore KinaseProfiler
# [35] = molecular target: T35, TAO2 (Homo sapiens, UniProt Q9UL54); assay: Kinome profiler screen; type: biochemical; conditions: at 20,000 nM inhibitor; kinase activity remaining
# T35 construct: purchased Millipore KinaseProfiler
# [36] = molecular target: T36, ACK1 (Homo sapiens, UniProt Q07912); assay: Kinome profiler screen; type: biochemical; conditions: at 20,000 nM inhibitor; kinase activity remaining
# T36 construct: purchased Millipore KinaseProfiler
# [37] = molecular target: T37, FGFR4 (Homo sapiens, UniProt P22455); assay: Kinome profiler screen; type: biochemical; conditions: at 20,000 nM inhibitor; kinase activity remaining
# T37 construct: purchased Millipore KinaseProfiler
# [38] = tested on: BV-2 microglial cells; assay: cells; type: cell-based, murine; conditions: BV-2 cells, LPS
# [39] = molecular target: T38, CK2 (Homo sapiens, UniProt P68400); assay: Kinome profiler screen; type: biochemical; conditions: at 20,000 nM inhibitor; kinase activity remaining
# T38 construct: purchased Millipore KinaseProfiler
# [40] = molecular target: T39, PKCβI (Homo sapiens, UniProt P05771); assay: Kinome profiler screen; type: biochemical; conditions: at 20,000 nM inhibitor; kinase activity remaining
# T39 construct: purchased Millipore KinaseProfiler
# [41] = tested on: IL-1β levels in brain cortex; assay: LPS-induced brain IL-1β in vivo; set-up: species or system C57Bl/6 mice; conditions: 20 mg/Kg oral gavage 1 hr before LPS 0.5 mg/kg i.p.; brain cortex at 6 hrs
# [42] = molecular target: T40, PI3 Kinase (p120γ) (Homo sapiens, UniProt P48736); assay: Kinome profiler screen; type: biochemical; conditions: at 20,000 nM inhibitor; kinase activity remaining
# T40 construct: purchased Millipore KinaseProfiler
# T2 sequence (P21802 22-821 N549H): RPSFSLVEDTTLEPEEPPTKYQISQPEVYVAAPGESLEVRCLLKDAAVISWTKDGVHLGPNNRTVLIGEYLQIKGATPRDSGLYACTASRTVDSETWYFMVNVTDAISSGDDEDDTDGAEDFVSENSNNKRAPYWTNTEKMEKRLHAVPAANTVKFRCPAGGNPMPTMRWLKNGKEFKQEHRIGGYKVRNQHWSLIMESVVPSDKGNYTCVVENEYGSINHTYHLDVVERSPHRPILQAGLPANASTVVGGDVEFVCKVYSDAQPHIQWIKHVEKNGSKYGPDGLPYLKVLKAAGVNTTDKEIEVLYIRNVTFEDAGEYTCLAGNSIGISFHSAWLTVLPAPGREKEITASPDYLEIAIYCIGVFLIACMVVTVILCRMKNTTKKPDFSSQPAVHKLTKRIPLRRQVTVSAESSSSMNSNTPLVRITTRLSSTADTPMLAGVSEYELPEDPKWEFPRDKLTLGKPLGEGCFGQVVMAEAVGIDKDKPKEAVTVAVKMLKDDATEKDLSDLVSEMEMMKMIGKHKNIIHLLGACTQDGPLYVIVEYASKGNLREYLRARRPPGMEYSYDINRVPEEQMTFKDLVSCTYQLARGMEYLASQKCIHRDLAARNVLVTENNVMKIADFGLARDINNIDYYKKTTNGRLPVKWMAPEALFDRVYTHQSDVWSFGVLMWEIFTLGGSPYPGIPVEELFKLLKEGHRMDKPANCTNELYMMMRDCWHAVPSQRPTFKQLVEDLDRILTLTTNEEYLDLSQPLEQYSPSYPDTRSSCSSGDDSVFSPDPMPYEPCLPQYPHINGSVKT
# T31 sequence (O14920 whole entry): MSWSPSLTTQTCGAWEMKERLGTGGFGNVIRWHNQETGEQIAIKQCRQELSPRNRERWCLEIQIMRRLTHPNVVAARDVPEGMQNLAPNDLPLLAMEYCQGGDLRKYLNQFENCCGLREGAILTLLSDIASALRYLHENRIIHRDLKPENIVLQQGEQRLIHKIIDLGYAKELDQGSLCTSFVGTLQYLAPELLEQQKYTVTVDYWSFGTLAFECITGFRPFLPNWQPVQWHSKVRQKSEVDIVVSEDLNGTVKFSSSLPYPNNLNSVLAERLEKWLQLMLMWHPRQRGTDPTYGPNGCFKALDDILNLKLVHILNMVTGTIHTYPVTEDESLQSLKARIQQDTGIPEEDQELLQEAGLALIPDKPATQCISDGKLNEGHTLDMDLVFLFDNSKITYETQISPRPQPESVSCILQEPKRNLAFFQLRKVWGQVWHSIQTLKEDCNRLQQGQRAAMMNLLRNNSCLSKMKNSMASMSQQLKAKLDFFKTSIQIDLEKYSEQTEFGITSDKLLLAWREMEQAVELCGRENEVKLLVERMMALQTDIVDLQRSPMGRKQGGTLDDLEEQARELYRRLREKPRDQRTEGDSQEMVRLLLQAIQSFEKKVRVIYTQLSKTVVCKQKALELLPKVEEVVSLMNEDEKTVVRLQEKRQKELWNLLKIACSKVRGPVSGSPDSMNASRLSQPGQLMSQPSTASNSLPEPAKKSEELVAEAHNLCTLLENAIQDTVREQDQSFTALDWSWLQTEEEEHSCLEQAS
# T1 sequence (Q15303 26-1308): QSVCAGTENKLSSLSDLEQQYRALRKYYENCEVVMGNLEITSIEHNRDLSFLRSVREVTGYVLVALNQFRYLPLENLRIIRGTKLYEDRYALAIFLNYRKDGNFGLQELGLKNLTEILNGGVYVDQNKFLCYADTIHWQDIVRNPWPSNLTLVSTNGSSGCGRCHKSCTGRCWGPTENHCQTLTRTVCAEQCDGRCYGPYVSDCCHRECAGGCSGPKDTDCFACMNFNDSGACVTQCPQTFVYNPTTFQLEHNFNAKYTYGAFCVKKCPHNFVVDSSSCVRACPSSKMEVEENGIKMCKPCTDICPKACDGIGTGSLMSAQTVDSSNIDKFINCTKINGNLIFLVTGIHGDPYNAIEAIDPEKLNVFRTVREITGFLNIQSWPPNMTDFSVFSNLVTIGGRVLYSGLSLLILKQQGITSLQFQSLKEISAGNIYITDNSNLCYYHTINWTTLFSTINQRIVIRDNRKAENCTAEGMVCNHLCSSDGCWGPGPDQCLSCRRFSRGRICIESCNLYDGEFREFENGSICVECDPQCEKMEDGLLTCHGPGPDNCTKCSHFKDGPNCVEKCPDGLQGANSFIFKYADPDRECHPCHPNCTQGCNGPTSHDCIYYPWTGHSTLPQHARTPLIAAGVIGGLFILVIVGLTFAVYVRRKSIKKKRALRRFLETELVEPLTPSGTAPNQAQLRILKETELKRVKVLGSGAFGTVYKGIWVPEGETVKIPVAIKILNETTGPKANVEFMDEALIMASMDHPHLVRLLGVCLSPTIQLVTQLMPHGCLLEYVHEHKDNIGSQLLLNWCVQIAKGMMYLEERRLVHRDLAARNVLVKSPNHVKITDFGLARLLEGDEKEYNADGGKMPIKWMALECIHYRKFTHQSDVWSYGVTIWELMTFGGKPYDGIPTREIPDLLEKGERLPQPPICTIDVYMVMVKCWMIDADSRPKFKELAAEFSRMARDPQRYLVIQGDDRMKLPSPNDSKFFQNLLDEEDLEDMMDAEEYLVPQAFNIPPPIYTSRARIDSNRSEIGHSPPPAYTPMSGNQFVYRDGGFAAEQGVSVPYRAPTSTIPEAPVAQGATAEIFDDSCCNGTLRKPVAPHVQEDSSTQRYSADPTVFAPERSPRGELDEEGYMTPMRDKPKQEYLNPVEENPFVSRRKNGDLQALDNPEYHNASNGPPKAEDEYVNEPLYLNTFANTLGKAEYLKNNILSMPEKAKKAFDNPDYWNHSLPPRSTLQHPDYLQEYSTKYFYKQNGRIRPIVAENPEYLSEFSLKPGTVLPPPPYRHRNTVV
# T9 sequence (P06239 whole entry): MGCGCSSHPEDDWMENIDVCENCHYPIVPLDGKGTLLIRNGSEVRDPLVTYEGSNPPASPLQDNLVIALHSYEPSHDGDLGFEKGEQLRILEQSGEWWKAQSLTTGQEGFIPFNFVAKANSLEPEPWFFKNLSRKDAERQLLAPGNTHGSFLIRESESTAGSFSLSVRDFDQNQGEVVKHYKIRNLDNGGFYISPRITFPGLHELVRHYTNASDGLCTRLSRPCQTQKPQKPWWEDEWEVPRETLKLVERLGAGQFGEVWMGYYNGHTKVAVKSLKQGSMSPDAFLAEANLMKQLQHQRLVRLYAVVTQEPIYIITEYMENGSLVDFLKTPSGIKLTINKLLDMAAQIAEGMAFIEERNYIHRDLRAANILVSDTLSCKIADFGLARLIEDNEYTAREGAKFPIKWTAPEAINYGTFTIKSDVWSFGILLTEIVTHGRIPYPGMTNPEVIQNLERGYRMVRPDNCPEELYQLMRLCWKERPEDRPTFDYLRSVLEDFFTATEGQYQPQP
# T34 sequence (Q8IWQ3 whole entry): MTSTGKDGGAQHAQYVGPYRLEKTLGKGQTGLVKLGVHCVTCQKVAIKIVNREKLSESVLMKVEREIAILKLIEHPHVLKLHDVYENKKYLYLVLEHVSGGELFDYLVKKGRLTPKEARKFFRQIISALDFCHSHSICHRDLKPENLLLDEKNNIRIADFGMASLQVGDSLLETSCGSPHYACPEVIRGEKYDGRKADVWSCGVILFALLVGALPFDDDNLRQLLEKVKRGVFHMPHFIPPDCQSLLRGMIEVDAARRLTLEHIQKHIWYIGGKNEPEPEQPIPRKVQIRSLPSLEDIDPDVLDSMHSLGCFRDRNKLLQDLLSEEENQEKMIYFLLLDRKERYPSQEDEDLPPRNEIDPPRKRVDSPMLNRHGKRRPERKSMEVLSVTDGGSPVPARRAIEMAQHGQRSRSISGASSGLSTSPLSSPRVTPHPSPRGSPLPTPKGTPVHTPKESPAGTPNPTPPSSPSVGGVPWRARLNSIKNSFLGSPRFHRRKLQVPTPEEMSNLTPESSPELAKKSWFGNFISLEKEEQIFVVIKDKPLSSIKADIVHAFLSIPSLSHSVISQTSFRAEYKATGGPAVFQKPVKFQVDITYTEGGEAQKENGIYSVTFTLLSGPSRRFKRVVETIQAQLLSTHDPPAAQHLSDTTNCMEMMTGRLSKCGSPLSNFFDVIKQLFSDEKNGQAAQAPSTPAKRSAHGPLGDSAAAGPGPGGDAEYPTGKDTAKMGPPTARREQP
smiles,measurement,setting,value
"CN(C)c1cc(-c2ccncc2)c(-c2cccc3ccccc23)nn1 [MW181, N,N-dimethyl-6-(naphthalen-1-yl)-5-(pyridin-4-yl)pyridazin-3-amine]",activity at 20 µM,[1],78%
same,activity at 20 µM,[2],96%
same,activity at 20 µM,[3],104%
same,activity at 20 µM,[4],106%
same,activity at 20 µM,[5],99%
same,activity at 20 µM,[6],107%
same,activity at 20 µM,[7],109%
same,activity at 20 µM,[8],105%
same,activity at 20 µM,[9],84%
same,activity at 20 µM,[10],98%
same,activity at 20 µM,[11],101%
same,activity at 20 µM,[12],91%
same,activity at 20 µM,[13],101%
same,activity at 20 µM,[14],100%
same,activity at 20 µM,[15],102%
same,activity at 20 µM,[16],102%
same,activity at 20 µM,[17],98%
same,activity at 20 µM,[18],114%
same,activity at 20 µM,[19],101%
same,activity at 20 µM,[20],103%
same,activity at 20 µM,[21],102%
same,activity at 20 µM,[22],102%
same,activity at 20 µM,[23],101%
same,activity at 20 µM,[24],101%
same,activity at 20 µM,[25],77%
same,activity at 20 µM,[26],112%
same,activity at 20 µM,[27],96%
same,activity at 20 µM,[28],102%
same,activity at 20 µM,[29],99%
same,activity at 20 µM,[30],93%
same,activity at 20 µM,[31],88%
same,activity at 20 µM,[32],108%
same,activity at 20 µM,[33],100%
same,activity at 20 µM,[34],105%
same,activity at 20 µM,[35],94%
same,activity at 20 µM,[36],106%
same,activity at 20 µM,[37],98%
same,LPS-induced IL-1β production,[38],inhibited LPS-induced IL-1β production in a concentration-dependent manner
same,activity at 20 µM,[39],104%
same,activity at 20 µM,[40],104%
same,LPS-induced IL-1β levels in vivo,[41],suppressed LPS-induced IL-1β levels in vivo
same,activity at 20 µM,[42],100%
